Results reported in patent US20230313311A1, “METHOD OF ASSESSING THE CIRCADIAN RHYTHM OF A SUBJECT HAVING CANCER AND/OR ASSESSING A TIMING OF ADMINISTRATION OF A MEDICAMENT TO SAID SUBJECT HAVING CANCER” (priority 2020, published 2023).

How the values were obtained:
[1] = system: BMAL1-Promoter activity in HCT116, SW480 and SW620 colon cancer cells; experiment: BMAL1-Promoter activity, live-cell bioluminescence recording over five days; assay type: cell-based, human; conditions: treated vs control, n=3
Method: Here, the three cell lines were treated with several anti-cancer drugs, including WZB117, Oxaliplatin and cisplatin, and the rhythmic promoter activity of BMAL1 was measured over several days (FIG. 13). […] More specifically, HCT116, SW480 and SW620 colon cancer cells were treated with Oxaliplatin, Cisplatin and WZB117. BMAL1-Promoter activity was measured using live-cell bioluminescence recording over five days. Shown is one representative plot for the control (black) and the treated (grey dashed) condition, n=3.
BMAL1-Promoter activity was measured using live-cell bioluminescence recording over five days. Shown is one representative plot for the control (black) and the treated (grey) condition, n=3.

[2] = system: SW480 colorectal cancer cells; conditions: cited from earlier work; for effect of drug administration depending on time: control cells; for effect of drug administration depending on time after BMAL1 downregulation: core-clock gene BMAL1 downregulated
[3] = system: core-clock downregulated (shBMAL1, shNR1D1 and shPER2) HCT116 cancer cell lines; experiment: Cell proliferation measured using confluence after time-dependent treatment; assay type: cell-based, human; conditions: 10 μM; treated at 18 h, 21 h and 24 h after cell synchronization; confluence over five days; n=3
Method: FIG. 15 illustrates how cell proliferation for an exemplified for a human cancer cell type is affected by Cisplatin treatment in a time-dependent manner;
In addition to the BMAL1 rhythmicity data, preliminary data were obtained pointing towards the differential regulation of cancer cell proliferation based on the timing of drug administration. […] Cell proliferation was measured using confluence over five days. n=3.

AsPC1 cells = conditions: SMAD4 deficient AsPC1; treated 17 h, 20 h, 23 h after synchronization; cited from earlier work
Panc1 cells = conditions: cited from earlier work
mice = conditions: among six mouse categories; treatment tolerability as output; cited from earlier work

| Structure (SMILES) | effect of drug application on rhythmicity of BMAL1 promoter activity [1] | effect of drug administration depending on time [2] | effect of drug administration depending on time after BMAL1 downregulation [2] | further results |
| --- | --- | --- | --- | --- |
| O=C(Oc1cccc(F)c1OC(=O)c1cccc(O)c1)c1cccc(O)c1 [WZB117] | altered the rhythmicity of the core-clock gene BMAL1 | time-dependent | this effect is lost |  |
| N.N.[Cl][Pt][Cl] [Cisplatin] | altered the rhythmicity of the core-clock gene BMAL1 |  |  | cell proliferation depending on timing of drug administration [3]: reduced cell proliferation for shNR1D1 and shPER2 cells, when cells were treated at 24 h after synchronization compared to the other time-points |
| O=C1[O][Pt]2([NH][C@@H]3CCCC[C@H]3[NH]2)[O]C1=O [Oxaliplatin] | altered the rhythmicity of the core-clock gene BMAL1 | time-dependent | this effect is lost |  |
| Nc1ccn([C@@H]2O[C@H](CO)[C@@H](O)C2(F)F)c(=O)n1 [gemcitabine] |  |  |  | response to time-dependent treatment (AsPC1 cells): this effect is not observed; differential drug response to different treatment time points after gene downregulation (Panc1 cells; Panc1 with downregulation of NR1D1 or SMAD4): the differential drug response to different treatment time points is impaired; response to time-dependent treatment (Panc1 cells; SMAD4 proficient Panc1, treated 17 h, 20 h, 23 h after synchronization): more resistant to treatment |
| CCc1c2c(nc3ccc(OC(=O)N4CCC(N5CCCCC5)CC4)cc13)-c1cc3c(c(=O)n1C2)COC(=O)[C@]3(O)CC [Irinotecan] | alters BMAL1 rhythmic promoter activity |  |  | variation of optimal circadian timing along the 24 hours (mice): up to 8 hour |
